Experimental data as given in the supplement of paper PMC10307832.

Experiments:
Experiment in all cases: relative viability (nuclei count vs DMSO), 5 days (fraction); higher = more cells survive
CAP-232 + Pemetrexed = compound: C[C@H]([C@@H](C(=O)N)NC(=O)[C@@H]1CSSC[C@@H](C(=O)N[C@H](C(=O)N[C@@H](C(=O)N[C@H](C(=O)N1)CCCCN)CC2=CNC3=CC=CC=C32)CC4=CC=C(C=C4)O)NC(=O)[C@@H](CC5=CC=CC=C5)N)O [CAP-232] + Nc1nc2[nH]cc(CCc3ccc(C(=O)N[C@@H](CCC(=O)O)C(=O)O)cc3)c2c(=O)[nH]1 [Pemetrexed] (partner 0.2 µM)
Outline: (§1)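 After 5 days of treatment, lung cancer cells in 1536-well plates were fixed and stained in a single step (final 0.05% Triton X-100, 1% formaldehyde, 1 ug/ml Hoechst) and their nuclei counted on 4× images. Treatment had been applied by pin tool the day after seeding as one drug alone or as a fixed anchor-drug dose with five library-drug doses (not always all listed) in √10 steps. Relative viability is the nuclei count of treated wells divided by that of vehicle wells, and values are medians of duplicate plates.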

CAP-232 + Decitabine = compound: C[C@H]([C@@H](C(=O)N)NC(=O)[C@@H]1CSSC[C@@H](C(=O)N[C@H](C(=O)N[C@@H](C(=O)N[C@H](C(=O)N1)CCCCN)CC2=CNC3=CC=CC=C32)CC4=CC=C(C=C4)O)NC(=O)[C@@H](CC5=CC=CC=C5)N)O [CAP-232] + Nc1ncn([C@H]2C[C@H](O)[C@@H](CO)O2)c(=O)n1 [Decitabine] (partner 2 µM)
Outline: as §1

CAP-232 + Bortezomib = compound: C[C@H]([C@@H](C(=O)N)NC(=O)[C@@H]1CSSC[C@@H](C(=O)N[C@H](C(=O)N[C@@H](C(=O)N[C@H](C(=O)N1)CCCCN)CC2=CNC3=CC=CC=C32)CC4=CC=C(C=C4)O)NC(=O)[C@@H](CC5=CC=CC=C5)N)O [CAP-232] + CC(C)C[C@H](NC(=O)[C@H](Cc1ccccc1)NC(=O)c1cnccn1)B(O)O [Bortezomib] (partner 0.002 µM)
Outline: as §1

CAP-232 + Crizotinib = compound: C[C@H]([C@@H](C(=O)N)NC(=O)[C@@H]1CSSC[C@@H](C(=O)N[C@H](C(=O)N[C@@H](C(=O)N[C@H](C(=O)N1)CCCCN)CC2=CNC3=CC=CC=C32)CC4=CC=C(C=C4)O)NC(=O)[C@@H](CC5=CC=CC=C5)N)O [CAP-232] + C[C@@H](Oc1cc(-c2cnn(C3CCNCC3)c2)cnc1N)c1c(Cl)ccc(F)c1Cl [Crizotinib] (partner 1 µM)
Outline: as §1

CAP-232 + OSI-027 = compound: C[C@H]([C@@H](C(=O)N)NC(=O)[C@@H]1CSSC[C@@H](C(=O)N[C@H](C(=O)N[C@@H](C(=O)N[C@H](C(=O)N1)CCCCN)CC2=CNC3=CC=CC=C32)CC4=CC=C(C=C4)O)NC(=O)[C@@H](CC5=CC=CC=C5)N)O [CAP-232] + COc1cccc2cc(-c3nc([C@H]4CC[C@H](C(=O)O)CC4)n4ncnc(N)c34)[nH]c12 [OSI-027] (partner 0.5 µM)
Outline: as §1

| Cell Line | relative viability (CAP-232 + Pemetrexed; first compound 0.4 µM) | relative viability (CAP-232 + Pemetrexed; first compound 1.265 µM) | relative viability (CAP-232 + Pemetrexed; first compound 4 µM) | relative viability (CAP-232 + Pemetrexed; first compound 12.65 µM) | relative viability (CAP-232 + Decitabine; first compound 0.4 µM) | relative viability (CAP-232 + Decitabine; first compound 1.265 µM) | relative viability (CAP-232 + Decitabine; first compound 4 µM) | relative viability (CAP-232 + Decitabine; first compound 12.65 µM) | relative viability (CAP-232 + Bortezomib; first compound 0.4 µM) | relative viability (CAP-232 + Bortezomib; first compound 1.265 µM) | relative viability (CAP-232 + Bortezomib; first compound 4 µM) | relative viability (CAP-232 + Bortezomib; first compound 12.65 µM) | relative viability (CAP-232 + Crizotinib; first compound 0.4 µM) | relative viability (CAP-232 + Crizotinib; first compound 1.265 µM) | relative viability (CAP-232 + Crizotinib; first compound 4 µM) | relative viability (CAP-232 + Crizotinib; first compound 12.65 µM) | relative viability (CAP-232 + OSI-027; first compound 0.4 µM) | relative viability (CAP-232 + OSI-027; first compound 1.265 µM) | relative viability (CAP-232 + OSI-027; first compound 4 µM) | relative viability (CAP-232 + OSI-027; first compound 12.65 µM) |
| --- | --- | --- | --- | --- | --- | --- | --- | --- | --- | --- | --- | --- | --- | --- | --- | --- | --- | --- | --- | --- |
| BEN | 0.888 | 0.613 | 0.923 | 0.752 | 0.792 | 0.686 | 0.742 | 0.795 | 0.819 | 0.667 | 0.959 | 0.745 | 0.859 | 0.98 | 0.82 | 0.772 | 0.27 | 0.33 | 0.287 | 0.241 |
| COR-L23 | 0.203 | 0.199 | 0.196 | 0.163 | 0.451 | 0.407 | 0.471 | 0.337 | 0.959 | 1.04 | 1.15 | 0.732 | 0.665 | 0.793 | 0.72 | 0.619 | 1.15 | 0.759 | 0.85 | 0.495 |
| COR-L 105 | 1.44 | 0.964 | 1.18 | 0.783 | 0.629 | 0.647 | 0.684 | 0.477 | 0.913 | 0.742 | 0.657 | 0.567 | 0.863 | 0.808 | 0.804 | 0.581 | 0.852 | 0.646 | 0.646 | 0.387 |
| ChaGo-K-1 | 0.284 | 0.259 | 0.259 | 0.248 | 0.497 | 0.542 | 0.506 | 0.547 | 1.45 | 0.768 | 1.06 | 0.784 | 1.22 | 1.17 | 1.41 | 0.833 | 0.65 | 0.504 | 0.678 | 0.6 |
| EKVX | 0.392 | 0.375 | 0.413 | 0.33 | 0.993 | 0.367 | 0.256 | 0.323 | 1.15 | 0.931 | 0.925 | 0.917 | 0.899 | 1.1 | 1.03 | 0.651 | 0.724 | 0.779 | 0.667 | 0.64 |
| EMC-BAC-2 | 0.44 | 0.412 | 0.422 | 0.442 | 0.969 | 0.963 | 0.959 | 0.972 | 1.13 | 1.11 | 1.14 | 1.12 | 0.794 | 0.753 | 0.764 | 0.709 | 0.407 | 0.324 | 0.328 | 0.358 |
| EPLC-272H |  | 0.411 | 0.316 | 0.178 | 0.348 | 0.334 | 0.344 | 0.355 | 0.992 | 0.878 | 0.892 | 0.87 | 1.16 | 0.836 | 0.791 | 0.887 | 0.275 | 0.284 | 0.285 | 0.262 |
| H3255 | 0.605 | 0.549 | 0.559 | 0.543 | 0.744 |  | 0.608 | 0.676 | 0.934 | 0.816 | 0.829 | 0.688 | 0.956 | 1.04 | 0.854 | 0.692 | 0.567 | 0.538 | 0.63 | 0.811 |
| HARA | 0.281 | 0.243 | 0.268 | 0.215 | 0.526 | 0.555 | 0.523 | 0.527 | 1.2 | 1.2 | 1.13 | 1.17 | 1.16 | 1.05 | 0.936 | 0.998 | 0.436 | 0.554 | 0.613 | 0.44 |
| HCC-15 | 0.19 | 0.218 | 0.223 | 0.0856 | 0.686 | 0.62 | 0.638 | 0.176 | 1.16 | 1 | 1.27 | 0.77 | 0.807 | 0.816 | 0.924 | 0.825 | 0.714 | 0.662 | 0.69 | 0.521 |
| HCC-44 | 0.648 | 0.622 | 0.626 | 0.686 | 1.03 | 0.962 | 0.972 | 0.935 | 1 | 0.864 | 0.948 | 0.893 | 0.866 | 0.812 | 0.863 | 0.846 | 0.636 | 0.507 | 0.489 | 0.371 |
| HCC-78 | 0.939 | 0.912 | 0.901 | 0.899 | 0.755 | 0.764 | 0.687 | 0.636 | 0.544 | 0.563 | 0.489 | 0.396 | 0.367 | 0.34 | 0.251 | 0.323 | 0.356 | 0.364 | 0.368 | 0.397 |
| HCC-366 | 0.201 | 0.175 | 0.202 | 0.17 | 0.407 | 0.301 | 0.317 | 0.384 | 1.22 | 0.942 | 1.15 | 1 | 0.486 | 0.543 | 0.623 | 0.448 | 0.986 | 0.875 | 1.22 | 0.82 |
| HCC-827 | 0.266 | 0.277 | 0.222 | 0.231 | 0.334 | 0.357 | 0.324 | 0.365 | 1.19 | 1.06 | 1.03 | 1 | 0.932 | 1.02 | 0.784 | 0.963 | 0.896 | 0.786 | 0.831 | 0.637 |
